Experimental data published in patent US20240293401A1, “COMBINATION THERAPY WITH AN LXR AGONIST AND AN INHIBITOR COMPOUND” (Asteroid Therapeutics, priority 2023, published 2024).
Each block holds one compound with its values, some of them ahead of it.

What was measured:
Abca1 = assay: Mouse study: expression of the LXR target gene Abca1 in the brain after 5 days of daily dosing; assay type: in vivo, mice; settings: for Average ABCA1 FC vs. vehicle (brain): daily for 5 days, 4 hours post dose on day 5
Procedure: (§1) Mice were dosed daily with either: • a. the LXR agonist GW3965 orally at specified concentrations for 5-days, • b. the LXR inverse agonist SR9238 intraperitoneally at specified concentrations for 5-days, or • c. both drugs simultaneously at specified concentrations for 5-days.
(§2) Four hours after the final treatment on day 5, mice were euthanized and tissues were collected.

[1] = Mouse study: liver triglycerides after 5 days of daily dosing; assay type: in vivo, mice; settings: for Average liver trig: daily for 5 days, 4 hours post dose on day 5
Procedure: as §1, §2

β-cells = settings: cited from earlier work
[2] = system: glioblastoma, prostate cancer, and breast cancer cells; settings: cited from earlier work
[3] = SR9238 30 mg/kg intraperitoneally
[4] = SR9238 60 mg/kg intraperitoneally

Average liver trig [1, 3]: 7.78 mg/g
Average liver trig [1, 4]: 8.4 mg/g
SMILES: CCOC(=O)c1ccc(CN(Cc2ccc(-c3cccc(S(C)(=O)=O)c3)cc2)S(=O)(=O)c2c(C)cc(C)cc2C)o1 [SR9238]
Average ABCA1 FC vs. vehicle (brain) (Abca1; [3]): 0.9
Average ABCA1 FC vs. vehicle (brain) (Abca1; [4]): 1.2

SMILES: O=S(=O)(c1ccccc1)N(CC(F)(F)F)c1ccc(C(O)(C(F)(F)F)C(F)(F)F)cc1 [T0901317]
effect on β-cells (in words) (β-cells): interfere with mitochondrial metabolism and metabolism-independent processes in β-cells

SMILES: O=C(O)Cc1cccc(OCCCN(Cc2cccc(C(F)(F)F)c2Cl)CC(c2ccccc2)c2ccccc2)c1 [GW-3965]
effect on β-cells (in words) (β-cells): interfere with mitochondrial metabolism and metabolism-independent processes in β-cells
Average ABCA1 FC vs. vehicle (brain) (Abca1; GW-3965 15 mg/kg orally): 1.6
Average ABCA1 FC vs. vehicle (brain) (Abca1; GW-3965 30 mg/kg orally): 2.0
Average ABCA1 FC vs. vehicle (brain) (Abca1; GW-3965 60 mg/kg orally): 2.8
expression of the LXR target gene Abca1 (in words) (Abca1; GW-3965 alone, 5 days of daily treatment, brains of mice): increased expression
Average liver trig ([1]; GW-3965 15 mg/kg orally): 16.3 mg/g
Average liver trig ([1]; GW-3965 30 mg/kg orally): 18.4 mg/g
Average liver trig ([1]; GW-3965 60 mg/kg orally): 29.2 mg/g
liver triglyceride concentrations (in words) ([1]; GW-3965 alone, 5 days of daily treatment): increased liver triglyceride concentrations

SMILES: CC(C)CC[C@@H](O)[C@@H](C)[C@H]1CC[C@H]2[C@@H]3CC=C4C[C@@H](O)CC[C@]4(C)[C@H]3CC[C@]12C [22(R)-hydroxycholesterol]
proliferation of glioblastoma, prostate cancer, and breast cancer cells (in words) [2]: suppress the proliferation

SMILES: CC(C)[C@@H](O)CC[C@@H](C)[C@H]1CC[C@H]2[C@@H]3CC=C4C[C@@H](O)CC[C@]4(C)[C@H]3CC[C@]12C [24(S)-hydroxycholesterol]
proliferation of glioblastoma, prostate cancer, and breast cancer cells (in words) [2]: suppress the proliferation
